{
  "source": "PubChem BioAssay AID2060491",
  "about": "(Molecular Pharmacology Branch, DTP, NCI, 2025)",
  "tested_on": "857933-349-R-J2-PDC complex spheroids, viability",
  "assay": "Anticancer human tumor 857933-349-R-J2-PDC patient-derived colon adenocarcinoma cell line growth inhibition [GQUAD]",
  "conditions": "for pIC50: curve of first compound; for viability, T/C: stronger effect = lower value",
  "how_it_was_run": "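Multi-cell-type spheroids of tumor cells with HUVEC and mesenchymal stem cells, treated with drug combinations. Concentrations descend in half-log steps from near clinical Cmax, or from 10 microM where Cmax is unknown; viability read-out.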",
  "key": {"[1]": {"conditions": "second compound 0.0316 µM, first compound 0.0316 µM"}, "[2]": {"conditions": "second compound 0.0316 µM, first compound 0.1 µM"}, "[3]": {"conditions": "second compound 0.0316 µM, first compound 0.316 µM"}, "[4]": {"conditions": "second compound 0.0316 µM, first compound 1 µM"}, "[5]": {"conditions": "second compound 0.0316 µM, first compound 3.16 µM"}, "[6]": {"conditions": "second compound 0.0316 µM, first compound 10 µM"}, "[7]": {"conditions": "second compound 0.1 µM, first compound 0.0316 µM"}, "[8]": {"conditions": "second compound 0.1 µM, first compound 0.1 µM"}, "[9]": {"conditions": "second compound 0.1 µM, first compound 0.316 µM"}, "[10]": {"conditions": "second compound 0.1 µM, first compound 1 µM"}, "[11]": {"conditions": "second compound 0.1 µM, first compound 3.16 µM"}, "[12]": {"conditions": "second compound 0.1 µM, first compound 10 µM"}, "[13]": {"conditions": "second compound 0.316 µM, first compound 0.0316 µM"}, "[14]": {"conditions": "second compound 0.316 µM, first compound 0.1 µM"}, "[15]": {"conditions": "second compound 0.316 µM, first compound 0.316 µM"}, "[16]": {"conditions": "second compound 0.316 µM, first compound 1 µM"}, "[17]": {"conditions": "second compound 0.316 µM, first compound 3.16 µM"}, "[18]": {"conditions": "second compound 0.316 µM, first compound 10 µM"}, "[19]": {"conditions": "second compound 1 µM, first compound 0.0316 µM"}, "[20]": {"conditions": "second compound 1 µM, first compound 0.1 µM"}, "[21]": {"conditions": "second compound 1 µM, first compound 0.316 µM"}, "[22]": {"conditions": "second compound 1 µM, first compound 1 µM"}, "[23]": {"conditions": "second compound 1 µM, first compound 3.16 µM"}, "[24]": {"conditions": "second compound 1 µM, first compound 10 µM"}, "[25]": {"conditions": "second compound 3.16 µM, first compound 0.0316 µM"}, "[26]": {"conditions": "second compound 3.16 µM, first compound 0.1 µM"}, "[27]": {"conditions": "second compound 3.16 µM, first compound 0.316 µM"}, "[28]": {"conditions": "second compound 3.16 µM, first compound 1 µM"}, "[29]": {"conditions": "second compound 3.16 µM, first compound 3.16 µM"}, "[30]": {"conditions": "second compound 3.16 µM, first compound 10 µM"}, "[31]": {"conditions": "second compound 10 µM, first compound 0.0316 µM"}, "[32]": {"conditions": "second compound 10 µM, first compound 0.1 µM"}, "[33]": {"conditions": "second compound 10 µM, first compound 0.316 µM"}, "[34]": {"conditions": "second compound 10 µM, first compound 1 µM"}, "[35]": {"conditions": "second compound 10 µM, first compound 3.16 µM"}, "[36]": {"conditions": "second compound 10 µM, first compound 10 µM"}},
  "note": "pIC50: −log10 of the molar value.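 Further: spheroids exposed to compounds for one week before readout.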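 Wherever viability, T/C is given: percent viability relative to vehicle DMSO wells taken as 100%.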",
  "data": [
    {"smiles": "COc1ncnc(C2CC2)c1-c1ncc2cnn(Cc3ccc(-c4nc(C(F)(F)F)cn4C(C)C)cc3)c2n1", "note": "+ CN(C)c1ccc(Nc2c3ccc(NC(=O)CCN4CCCC4)cc3nc3cc(NC(=O)CCN4CCCC4)ccc23)cc1", "values": [
      {"measurement": "pIC50", "setting": "second compound 0.0316 µM", "result": "< 5.00"},
      {"measurement": "pIC50", "setting": "second compound 0.1 µM", "result": "< 5.00"},
      {"measurement": "pIC50", "setting": "second compound 0.316 µM", "result": "< 5.00"},
      {"measurement": "pIC50", "setting": "second compound 1 µM", "result": "< 5.00"},
      {"measurement": "pIC50", "setting": "second compound 3.16 µM", "result": "< 5.00"},
      {"measurement": "pIC50", "setting": "second compound 10 µM", "result": "< 5.00"},
      {"measurement": "viability, T/C", "setting": "[1]", "result": 106, "unit": "%"},
      {"measurement": "viability, T/C", "setting": "[2]", "result": 99.8, "unit": "%"},
      {"measurement": "viability, T/C", "setting": "[3]", "result": 102, "unit": "%"},
      {"measurement": "viability, T/C", "setting": "[4]", "result": 101, "unit": "%"},
      {"measurement": "viability, T/C", "setting": "[5]", "result": 104, "unit": "%"},
      {"measurement": "viability, T/C", "setting": "[6]", "result": 104, "unit": "%"},
      {"measurement": "viability, T/C", "setting": "[7]", "result": 99.9, "unit": "%"},
      {"measurement": "viability, T/C", "setting": "[8]", "result": 103, "unit": "%"},
      {"measurement": "viability, T/C", "setting": "[9]", "result": 102, "unit": "%"},
      {"measurement": "viability, T/C", "setting": "[10]", "result": 101, "unit": "%"},
      {"measurement": "viability, T/C", "setting": "[11]", "result": 105, "unit": "%"},
      {"measurement": "viability, T/C", "setting": "[12]", "result": 109, "unit": "%"},
      {"measurement": "viability, T/C", "setting": "[13]", "result": 104, "unit": "%"},
      {"measurement": "viability, T/C", "setting": "[14]", "result": 104, "unit": "%"},
      {"measurement": "viability, T/C", "setting": "[15]", "result": 97.3, "unit": "%"},
      {"measurement": "viability, T/C", "setting": "[16]", "result": 90.8, "unit": "%"},
      {"measurement": "viability, T/C", "setting": "[17]", "result": 104, "unit": "%"},
      {"measurement": "viability, T/C", "setting": "[18]", "result": 99.2, "unit": "%"},
      {"measurement": "viability, T/C", "setting": "[19]", "result": 97.7, "unit": "%"},
      {"measurement": "viability, T/C", "setting": "[20]", "result": 88.5, "unit": "%"},
      {"measurement": "viability, T/C", "setting": "[21]", "result": 94.6, "unit": "%"},
      {"measurement": "viability, T/C", "setting": "[22]", "result": 92.7, "unit": "%"},
      {"measurement": "viability, T/C", "setting": "[23]", "result": 90.7, "unit": "%"},
      {"measurement": "viability, T/C", "setting": "[24]", "result": 87.6, "unit": "%"},
      {"measurement": "viability, T/C", "setting": "[25]", "result": 83.9, "unit": "%"},
      {"measurement": "viability, T/C", "setting": "[26]", "result": 77.7, "unit": "%"},
      {"measurement": "viability, T/C", "setting": "[27]", "result": 82.5, "unit": "%"},
      {"measurement": "viability, T/C", "setting": "[28]", "result": 74.2, "unit": "%"},
      {"measurement": "viability, T/C", "setting": "[29]", "result": 79.6, "unit": "%"},
      {"measurement": "viability, T/C", "setting": "[30]", "result": 67.3, "unit": "%"},
      {"measurement": "viability, T/C", "setting": "[31]", "result": 64.6, "unit": "%"},
      {"measurement": "viability, T/C", "setting": "[32]", "result": 63.1, "unit": "%"},
      {"measurement": "viability, T/C", "setting": "[33]", "result": 66.2, "unit": "%"},
      {"measurement": "viability, T/C", "setting": "[34]", "result": 61.6, "unit": "%"},
      {"measurement": "viability, T/C", "setting": "[35]", "result": 56.5, "unit": "%"},
      {"measurement": "viability, T/C", "setting": "[36]", "result": 52.2, "unit": "%"}
    ]},
    {"smiles": "CC1COCCN1c1cc(-c2ccnn2C)c2ccnc(-c3ccn[nH]3)c2n1", "note": "(centres undefined) + Cc1[nH]c2ccc(F)cc2c1-c1nc2c3cccnc3c3ncccc3c2[nH]1", "values": [
      {"measurement": "pIC50", "setting": "second compound 0.0316 µM", "result": 6.60},
      {"measurement": "pIC50", "setting": "second compound 0.1 µM", "result": 6.31},
      {"measurement": "pIC50", "setting": "second compound 0.316 µM", "result": 6.49},
      {"measurement": "pIC50", "setting": "second compound 1 µM", "result": 6.55},
      {"measurement": "pIC50", "setting": "second compound 3.16 µM", "result": 6.71},
      {"measurement": "pIC50", "setting": "second compound 10 µM", "result": 6.56},
      {"measurement": "viability, T/C", "setting": "[1]", "result": 73.7, "unit": "%"},
      {"measurement": "viability, T/C", "setting": "[2]", "result": 53.2, "unit": "%"},
      {"measurement": "viability, T/C", "setting": "[3]", "result": 50.3, "unit": "%"},
      {"measurement": "viability, T/C", "setting": "[4]", "result": 43.8, "unit": "%"},
      {"measurement": "viability, T/C", "setting": "[5]", "result": 55.3, "unit": "%"},
      {"measurement": "viability, T/C", "setting": "[6]", "result": 44.8, "unit": "%"},
      {"measurement": "viability, T/C", "setting": "[7]", "result": 69.6, "unit": "%"},
      {"measurement": "viability, T/C", "setting": "[8]", "result": 70.9, "unit": "%"},
      {"measurement": "viability, T/C", "setting": "[9]", "result": 53.2, "unit": "%"},
      {"measurement": "viability, T/C", "setting": "[10]", "result": 43.5, "unit": "%"},
      {"measurement": "viability, T/C", "setting": "[11]", "result": 46.9, "unit": "%"},
      {"measurement": "viability, T/C", "setting": "[12]", "result": 44.2, "unit": "%"},
      {"measurement": "viability, T/C", "setting": "[13]", "result": 71.7, "unit": "%"},
      {"measurement": "viability, T/C", "setting": "[14]", "result": 56.6, "unit": "%"},
      {"measurement": "viability, T/C", "setting": "[15]", "result": 49.2, "unit": "%"},
      {"measurement": "viability, T/C", "setting": "[16]", "result": 48.8, "unit": "%"},
      {"measurement": "viability, T/C", "setting": "[17]", "result": 47.4, "unit": "%"},
      {"measurement": "viability, T/C", "setting": "[18]", "result": 46.6, "unit": "%"},
      {"measurement": "viability, T/C", "setting": "[19]", "result": 61, "unit": "%"},
      {"measurement": "viability, T/C", "setting": "[20]", "result": 61.5, "unit": "%"},
      {"measurement": "viability, T/C", "setting": "[21]", "result": 48.6, "unit": "%"},
      {"measurement": "viability, T/C", "setting": "[22]", "result": 43.1, "unit": "%"},
      {"measurement": "viability, T/C", "setting": "[23]", "result": 52.8, "unit": "%"},
      {"measurement": "viability, T/C", "setting": "[24]", "result": 50.1, "unit": "%"},
      {"measurement": "viability, T/C", "setting": "[25]", "result": 75.2, "unit": "%"},
      {"measurement": "viability, T/C", "setting": "[26]", "result": 56, "unit": "%"},
      {"measurement": "viability, T/C", "setting": "[27]", "result": 45, "unit": "%"},
      {"measurement": "viability, T/C", "setting": "[28]", "result": 43.8, "unit": "%"},
      {"measurement": "viability, T/C", "setting": "[29]", "result": 44.6, "unit": "%"},
      {"measurement": "viability, T/C", "setting": "[30]", "result": 44.7, "unit": "%"},
      {"measurement": "viability, T/C", "setting": "[31]", "result": 74.4, "unit": "%"},
      {"measurement": "viability, T/C", "setting": "[32]", "result": 57, "unit": "%"},
      {"measurement": "viability, T/C", "setting": "[33]", "result": 50.4, "unit": "%"},
      {"measurement": "viability, T/C", "setting": "[34]", "result": 43.1, "unit": "%"},
      {"measurement": "viability, T/C", "setting": "[35]", "result": 46.1, "unit": "%"},
      {"measurement": "viability, T/C", "setting": "[36]", "result": 42.6, "unit": "%"}
    ]}
  ]
}
